Assay results published in PubChem BioAssay AID330 (DTP/NCI, 2004).
Where “and” joins values, the source holds several entries; their conditions need not be identical. Equal values may be shown once. Inconclusive results and toxic doses are left out.

Tested on: P388 leukemia ip, CD2F1 mice, survival T/C
Assay: NCI In Vivo Anticancer Drug Screen. Data for tumor model P388 Leukemia (intraperitoneal) in CD2F1 (CDF1) mice
Settings: endpoint: median survival time, higher = longer survival
In short: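 Mice carrying the transplanted tumor received test compound or vehicle. Survival was recorded in each group, and the value is the treated-group measurement divided by that of the vehicle-treated control group.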

[1] = dose: 100.0 mg/kg/injection, schedule: Q04DX002 (ip), vehicle: Klucel (hydroxypropylcellulose) (HPC)
[2] = dose: 50.0 mg/kg/injection, schedule: Q01DX005 (ip), vehicle: Klucel (hydroxypropylcellulose) (HPC)
[3] = dose: 100.0 mg/kg/injection, schedule: Q01DX005 (ip), vehicle: Klucel (hydroxypropylcellulose) (HPC)
[4] = dose: 200.0 mg/kg/injection, schedule: Q01DX005 (ip), vehicle: Klucel (hydroxypropylcellulose) (HPC)
[5] = dose: 50.0 mg/kg/injection, schedule: Q01DX009 (ip), vehicle: saline with Tween-80
[6] = dose: 100.0 mg/kg/injection, schedule: Q01DX009 (ip), vehicle: saline with Tween-80
[7] = dose: 12.5 mg/kg/injection, schedule: Q01DX005 (ip), vehicle: saline with Tween-80
[8] = dose: 25.0 mg/kg/injection, schedule: Q01DX005 (ip), vehicle: saline with Tween-80
[9] = dose: 50.0 mg/kg/injection, schedule: Q01DX005 (ip), vehicle: saline with Tween-80
[10] = dose: 100.0 mg/kg/injection, schedule: Q01DX005 (ip), vehicle: saline with Tween-80
[11] = dose: 200.0 mg/kg/injection, schedule: Q01DX005 (ip), vehicle: saline with Tween-80
[12] = dose: 6.25 mg/kg/injection, schedule: Q01DX009 (ip), vehicle: saline with Tween-80
[13] = dose: 12.5 mg/kg/injection, schedule: Q01DX009 (ip), vehicle: saline with Tween-80
[14] = dose: 25.0 mg/kg/injection, schedule: Q01DX005 (ip), vehicle: Klucel (hydroxypropylcellulose) (HPC)
[15] = dose: 25.0 mg/kg/injection, schedule: Q01DX009 (ip), vehicle: saline with Tween-80
[16] = dose: 50.0 mg/kg/injection, schedule: Q04DX003 (ip), vehicle: saline with Tween-80

O=[N+]([O-])O.[Mn].c1ccc(/C2=c3\cc/c([n-]3)=C(\c3ccccc3)c3ccc([n-]3)/C(c3ccccc3)=c3/cc/c([n-]3)=C(\c3ccccc3)c3ccc2[n-]3)cc1
T/C (dose: 25.0 mg/kg/injection, schedule: Q04DX002 (ip), vehicle: saline with Tween-80): 100 % of control
T/C (dose: 50.0 mg/kg/injection, schedule: Q04DX002 (ip), vehicle: saline with Tween-80): 94 % of control
T/C [1]: 108 % of control
T/C (dose: 100.0 mg/kg/injection, schedule: Q04DX002 (ip), vehicle: saline with Tween-80): 94 % of control
T/C (dose: 400.0 mg/kg/injection, schedule: Q04DX002 (ip), vehicle: Klucel (hydroxypropylcellulose) (HPC)): 108 % of control

CC/C(=N/NS(=O)(=O)c1ccc(C)cc1)c1ccc(O)cc1
T/C (dose: 100.0 mg/kg/injection, schedule: Q04DX003 (ip), vehicle: saline): 107 % of control
T/C (dose: 200.0 mg/kg/injection, schedule: Q04DX003 (ip), vehicle: saline): 100 % of control
T/C (dose: 400.0 mg/kg/injection, schedule: Q04DX003 (ip), vehicle: saline): 98 % of control

Cn1ncc(=O)[nH]c1=O
T/C [2]: 103 % of control
T/C [3]: 98 % of control
T/C [4]: 103 % of control

C1C[O][Ge]2([O]1)[O]CC[O]2
T/C (dose: 50.0 mg/kg/injection, schedule: Q01DX009 (ip), vehicle: saline): 108 % of control
T/C (dose: 100.0 mg/kg/injection, schedule: Q01DX009 (ip), vehicle: saline): 101 % of control
T/C (dose: 200.0 mg/kg/injection, schedule: Q01DX009 (ip), vehicle: saline): 102 % of control

CS(=O)(=O)N1OC1c1ccccc1 (configuration not stated)
T/C (dose: 60.0 mg/kg/injection, schedule: Q01DX005 (ip), vehicle: Klucel (hydroxypropylcellulose) (HPC)): 95 % of control
T/C (dose: 120.0 mg/kg/injection, schedule: Q01DX005 (ip), vehicle: Klucel (hydroxypropylcellulose) (HPC)): 100 % of control

CC(=O)Nc1ccc(O)c(O)c1
T/C [5]: 116 % of control and 119 % of control
T/C [6]: 120 % of control
T/C (dose: 200.0 mg/kg/injection, schedule: Q01DX009 (ip), vehicle: saline with Tween-80): 119 % of control

O=C(Oc1ccccc1)N1CCCC(O)C1 (configuration not stated)
T/C (dose: 50.0 mg/kg/injection, schedule: Q01DX009 (ip), vehicle: Klucel (hydroxypropylcellulose) (HPC)): 96 % of control
T/C (dose: 100.0 mg/kg/injection, schedule: Q01DX009 (ip), vehicle: Klucel (hydroxypropylcellulose) (HPC)): 105 % of control
T/C (dose: 200.0 mg/kg/injection, schedule: Q01DX009 (ip), vehicle: Klucel (hydroxypropylcellulose) (HPC)): 100 % of control

C/C(=N/NC(=S)NCc1ccccc1)c1ncccn1
T/C [7]: 100 % of control
T/C [8]: 100 % of control
T/C [9]: 105 % of control and 98 % of control

CCCCc1c(OS(=O)(=O)c2ccc(C)cc2)c(C#N)c2[nH]c3ccccc3n2c1=O
T/C (dose: 60.0 mg/kg/injection, schedule: Q01DX005 (ip), vehicle: saline with Tween-80): 91 % of control
T/C (dose: 120.0 mg/kg/injection, schedule: Q01DX005 (ip), vehicle: saline with Tween-80): 96 % of control
T/C (dose: 240.0 mg/kg/injection, schedule: Q01DX005 (ip), vehicle: saline with Tween-80): 89 % of control

c1ccc(-n2nc3c(c2-c2cccnc2)Cc2ccccc2-3)cc1
T/C [9]: 101 % of control
T/C [10]: 100 % of control
T/C [11]: 98 % of control

Cc1cc(N=Nc2ccc(-c3ccc(N=Nc4ccc(O)c(C(=O)O)c4)cc3)cc2)c(N)c(N=Nc2ccc(C(=O)Nc3ccc(S(=O)(=O)O)cc3)cc2)c1N
T/C (dose: 6.25 mg/kg/injection, schedule: Q01DX005 (ip), vehicle: saline with Tween-80): 100 % of control
T/C [7]: 101 % of control
T/C [8]: 101 % of control

NC(CSCSCc1ccccc1)C(=O)O (configuration not stated)
T/C (dose: 25.0 mg/kg/injection, schedule: Q01DX009 (ip), vehicle: other): 102 % of control
T/C (dose: 50.0 mg/kg/injection, schedule: Q01DX009 (ip), vehicle: other): 110 % of control
T/C (dose: 100.0 mg/kg/injection, schedule: Q01DX009 (ip), vehicle: other): 102 % of control
T/C (dose: 200.0 mg/kg/injection, schedule: Q01DX009 (ip), vehicle: other): 106 % of control

CC(C)[c-]1[c-][c-][c-][c-]1.CC(C)[c-]1[c-][c-][c-][c-]1.[Cl][Zr][Cl]
T/C (dose: 3.12 mg/kg/injection, schedule: Q01DX009 (ip), vehicle: saline with Tween-80): 112 % of control
T/C [12]: 119 % of control
T/C [13]: 117 % of control

CC(=O)[O-].[NH2-].[NH2-].[NH2-].[NH2-].[NH2-].[O-][Cl+3]([O-])([O-])O.[Ru+8]
T/C (dose: 3.13 mg/kg/injection, schedule: Q04DX003 (ip), vehicle: saline): 118 % of control
T/C (dose: 3.13 mg/kg/injection, schedule: Q04DX003 (ip), vehicle: water): 99 % of control
T/C (dose: 6.25 mg/kg/injection, schedule: Q04DX003 (ip), vehicle: saline): 113 % of control
T/C (dose: 6.25 mg/kg/injection, schedule: Q04DX003 (ip), vehicle: water): 118 % of control
T/C (dose: 12.5 mg/kg/injection, schedule: Q04DX003 (ip), vehicle: saline): 111 % of control
T/C (dose: 12.5 mg/kg/injection, schedule: Q04DX003 (ip), vehicle: water): 120 % of control

CCc1nc(-c2ccccc2)nc2c1nc(-c1ccc(C)cc1)n2Nc1ccccc1
T/C [2]: 88 % of control
T/C [3]: 90 % of control
T/C [4]: 89 % of control

COc1cc(OC)c(NC(=O)C(Sc2nc(C)cc(C)c2C#N)c2ccccc2)cc1Cl (configuration not stated)
T/C (dose: 12.5 mg/kg/injection, schedule: Q01DX005 (ip), vehicle: Klucel (hydroxypropylcellulose) (HPC)): 89 % of control
T/C [14]: 92 % of control and 93 % of control
T/C [2]: 100 % of control and 93 % of control
T/C [3]: 98 % of control
T/C [4]: 87 % of control

CN1CCCC1CCNc1nc(Nc2ccc(Cl)c(Cl)c2)nc2ccc(Cl)cc12 (configuration not stated)
T/C [12]: 95 % of control
T/C [13]: 90 % of control
T/C [15]: 100 % of control

CCCCOc1cc(C(=O)NCCN(C)C)c2ccccc2n1
T/C (dose: 7.5 mg/kg/injection, schedule: Q01DX005 (ip), vehicle: saline with Tween-80): 104 % of control
T/C (dose: 15.0 mg/kg/injection, schedule: Q01DX005 (ip), vehicle: saline with Tween-80): 106 % of control
T/C (dose: 30.0 mg/kg/injection, schedule: Q01DX005 (ip), vehicle: saline with Tween-80): 106 % of control

O=C(CNC(=O)OCc1ccccc1)NCC1OC(n2cnc3c(=O)[nH]cnc32)C(O)C1O (configuration not stated)
T/C [16]: 102 % of control
T/C (dose: 100.0 mg/kg/injection, schedule: Q04DX003 (ip), vehicle: saline with Tween-80): 94 % of control
T/C (dose: 200.0 mg/kg/injection, schedule: Q04DX003 (ip), vehicle: saline with Tween-80): 98 % of control

CC(=O)Nc1cc2cccnc2sc1=O
T/C [14]: 98 % of control
T/C [2]: 91 % of control
T/C [3]: 89 % of control and 94 % of control
T/C [4]: 96 % of control

Cn1c([N+](=O)[O-])cnc1/C=C1/Cc2cc(OCCN3CCCCCC3)ccc2C1=O
T/C [15]: 110 % of control
T/C [5]: 101 % of control
T/C [6]: 109 % of control

CC(=O)NC1=C(N2CC2C)C(=O)C(NC(C)=O)=C(N2CC2C)C1=O (configuration not stated)
T/C (dose: 1.78 mg/kg/injection, schedule: Q01DX009 (ip), vehicle: saline): 122 % of control
T/C (dose: 2.66 mg/kg/injection, schedule: Q01DX009 (ip), vehicle: saline): 160 % of control
T/C (dose: 4.0 mg/kg/injection, schedule: Q01DX009 (ip), vehicle: saline): 163 % of control
T/C (dose: 6.0 mg/kg/injection, schedule: Q01DX009 (ip), vehicle: saline): 210 % of control

C=C1C(=O)OC2C1C(OC(=O)/C(C)=C\C)CC1(CO1)C1C(O)C=C(C)C21O (configuration not stated)
T/C (dose: 25.0 mg/kg/injection, schedule: Q04DX003 (ip), vehicle: saline with Tween-80): 112 % of control
T/C [16]: 113 % of control

COc1cccc(-c2nnc(-c3nc[nH]c3C)o2)c1
T/C [1]: 100 % of control
T/C (dose: 200.0 mg/kg/injection, schedule: Q04DX002 (ip), vehicle: Klucel (hydroxypropylcellulose) (HPC)): 95 % of control

Cc1oc2ccccc2c(=O)c1CN1CCN(c2ccccn2)CC1
T/C (dose: 60.0 mg/kg/injection, schedule: Q01DX005 (ip), vehicle: saline): 101 % of control
T/C (dose: 120.0 mg/kg/injection, schedule: Q01DX005 (ip), vehicle: saline): 101 % of control

OCCCCCOCCOCCOCCOCCOCCCCCO
T/C [9]: 101 % of control
T/C [10]: 101 % of control
T/C [11]: 96 % of control

CN(C)c1ccc(/C=C2/SC(=S)NC2=O)cc1
T/C [8]: 93 % of control
T/C [9]: 90 % of control
T/C [10]: 87 % of control
